# From publication PMC12028158, “Synthesis and In Vitro Evaluation of the Anticancer Effect of Novel Phosphonium Vindoline Derivatives” (International Journal of Molecular Sciences, 2025)
# Read-outs that look alike come from different tables or passages of the source.
# Columns and labels:
# Assay type in all cases: cell-based
# SR [1] = experiment: NCI60 five-dose screen; conditions: Homo sapiens, Leukemia, five-dose, read-out: GI50
# HOP-62 [2] = experiment: NCI60 five-dose screen; conditions: Homo sapiens
# NCI-H23 = experiment: NCI60 five-dose screen; conditions: Homo sapiens
# HT29 = experiment: NCI60 five-dose screen; conditions: Homo sapiens, HT-29
# SW-620 = experiment: NCI60 five-dose screen; conditions: Homo sapiens
# SF-295 [3] = experiment: NCI60 five-dose screen; conditions: Homo sapiens
# SNB-75 = experiment: NCI60 five-dose screen; conditions: Homo sapiens
# LOX IMVI = experiment: NCI60 five-dose screen; conditions: Homo sapiens
# SK-MEL-2 = experiment: NCI60 five-dose screen; conditions: Homo sapiens
# SK-MEL-5 = experiment: NCI60 five-dose screen; conditions: Homo sapiens
# OVCAR-3 = experiment: NCI60 five-dose screen; conditions: Homo sapiens
# 786-0 = experiment: NCI60 five-dose screen; conditions: Homo sapiens
# UO-31 [4] = experiment: NCI60 five-dose screen; conditions: Homo sapiens
# PC-3 = experiment: NCI60 five-dose screen; conditions: Homo sapiens
# DU-145 = experiment: NCI60 five-dose screen; conditions: Homo sapiens
# MDA-MB231ATCC = experiment: NCI60 five-dose screen; conditions: Homo sapiens, MDA-MB-231
# T-47D = experiment: NCI60 five-dose screen; conditions: Homo sapiens, T47D
# MDA-MB-468 = experiment: NCI60 five-dose screen; conditions: Homo sapiens
# HL-60(TB) = experiment: NCI60 one-dose screen; conditions: Homo sapiens
# K-562 = experiment: NCI60 one-dose screen; conditions: Homo sapiens
# MOLT-4 = experiment: NCI60 one-dose screen; conditions: Homo sapiens
# A549/ATCC = experiment: NCI60 one-dose screen; conditions: Homo sapiens
# HOP-62 [5] = experiment: NCI60 one-dose screen; conditions: Homo sapiens
# NCI-H322M = experiment: NCI60 one-dose screen; conditions: Homo sapiens, read-out: Growth percent
# HCT-116 = experiment: NCI60 one-dose screen; conditions: Homo sapiens
# KM12 = experiment: NCI60 one-dose screen; conditions: Homo sapiens
# SF-268 = experiment: NCI60 one-dose screen; conditions: Homo sapiens
# SF-295 [6] = experiment: NCI60 one-dose screen; conditions: Homo sapiens
# SNB-19 = experiment: NCI60 one-dose screen; conditions: Homo sapiens
# M14 = experiment: NCI60 one-dose screen; conditions: Homo sapiens
# MDA-MB-435 = experiment: NCI60 one-dose screen; conditions: Homo sapiens
# SK-MEL-28 = experiment: NCI60 one-dose screen; conditions: Homo sapiens
# A498 = experiment: NCI60 one-dose screen; conditions: Homo sapiens
# ACHN = experiment: NCI60 one-dose screen; conditions: Homo sapiens, read-out: Growth percent
# HS 578T = experiment: NCI60 one-dose screen; conditions: Homo sapiens, read-out: Growth percent
# [7] = tested on: 60 human tumor cell lines (NCI60); experiment: NCI60 five-dose screen, overall mean
# SR [8] = experiment: NCI60 one-dose screen; conditions: Homo sapiens, read-out: Growth percent
# UO-31 [9] = experiment: NCI60 one-dose screen; conditions: Homo sapiens
# [10] = K562, K-562, 10 μM, one-dose, read-out: Growth percent
# [11] = MOLT-4, 10 μM, one-dose, read-out: Growth percent
# [12] = A549/ATCC, 10 μM, one-dose, read-out: Growth percent
# [13] = HOP-62, 10 μM, one-dose, read-out: Growth percent
# [14] = HCT-116, 10 μM, one-dose, read-out: Growth percent
# [15] = KM12, 10 μM, one-dose, read-out: Growth percent
# [16] = SF-268, 10 μM, one-dose, read-out: Growth percent
# [17] = SF-295, 10 μM, one-dose, read-out: Growth percent
# [18] = SNB-19, 10 μM, one-dose, read-out: Growth percent
# [19] = M14, 10 μM, one-dose, read-out: Growth percent
# [20] = MDA-MB-435, 10 μM, one-dose, read-out: Growth percent
# [21] = SK-MEL-28, 10 μM, one-dose, read-out: Growth percent
# [22] = A498, 10 μM, one-dose, read-out: Growth percent
# [23] = HL-60, read-out: Growth percent
structure (smiles),measurement,setting,value
CC[C@]12C=CCN3CC[C@@]4(c5ccc(OC)cc5N(C)[C@H]4[C@@](O)(C(=O)OC)[C@@H]1OC(=O)CCC[P+](c1cc(C)c(OC)c(C)c1)(c1cc(C)c(OC)c(C)c1)c1cc(C)c(OC)c(C)c1)[C@@H]32 [9e],GI50,SR [1],144 nM
same,GI50,"HOP-62 [2]; HOP-62, Non-small Cell Lung Cancer, five-dose, read-out: GI50",173 nM
same,GI50,"NCI-H23; NCI-H23, Non-small Cell Lung Cancer, five-dose, read-out: GI50",183 nM
same,GI50,"HT29; HT29, Colon Cancer, five-dose, read-out: GI50",151 nM
same,GI50,"SW-620; SW-620, Colon Cancer, five-dose, read-out: GI50",245 nM
same,GI50,"SF-295 [3]; SF-295, CNS Cancer, five-dose, read-out: GI50",213 nM
same,GI50,"SNB-75; SNB-75, CNS Cancer, five-dose, read-out: GI50",195 nM
same,GI50,"LOX IMVI; Melanoma, five-dose, read-out: GI50",145 nM
same,GI50,"SK-MEL-2; SK-MEL-2, SK-MEL-2, Melanoma, five-dose, read-out: GI50",60 nM
same,GI50,"SK-MEL-2; SK-MEL-2, melanoma SK-MEL-2, text, read-out: GI50",< 100 nM
same,GI50,"SK-MEL-5; SK-MEL-5, Melanoma, five-dose, read-out: GI50",138 nM
same,GI50,"OVCAR-3; OVCAR-3, Ovarian Cancer, five-dose, read-out: GI50",147 nM
same,GI50,"786-0; 786-0, Renal Cancer, five-dose, read-out: GI50",239 nM
same,GI50,"UO-31 [4]; UO-31, Renal Cancer, five-dose, read-out: GI50",1480 nM
same,GI50,"PC-3; PC-3, Prostate Cancer, five-dose, read-out: GI50",192 nM
same,GI50,"DU-145; DU-145, Prostate Cancer, five-dose, read-out: GI50",300 nM
same,GI50,"MDA-MB231ATCC; MDA-MB231ATCC, Breast Cancer, five-dose, read-out: GI50",293 nM
same,GI50,"T-47D; T-47D, Breast Cancer, five-dose, read-out: GI50",105 nM
same,GI50,"MDA-MB-468; MDA-MB-468, MDA-MB-468, Breast Cancer, five-dose, read-out: GI50",27 nM
same,GI50,"MDA-MB-468; MDA-MB-468, breast cancer MDA-MB-468, text, read-out: GI50",< 100 nM
same,activity at 10 µM,"HL-60(TB); HL-60(TB), 10 μM, one-dose, read-out: Growth percent",-97.2%
same,activity at 10 µM,K-562; [10],-97.5%
same,activity at 10 µM,MOLT-4; [11],-98.3%
same,activity at 10 µM,A549/ATCC; [12],-92.9%
same,activity at 10 µM,HOP-62 [5]; [13],-97.9%
same,activity at 10 µM,"NCI-H322M; 10 μM, one-dose",-98.1%
same,activity at 10 µM,HCT-116; [14],-93%
same,activity at 10 µM,KM12; [15],-95%
same,activity at 10 µM,SF-268; [16],-97.6%
same,activity at 10 µM,SF-295 [6]; [17],-98.6%
same,activity at 10 µM,SNB-19; [18],-97.1%
same,activity at 10 µM,M14; [19],-97.3%
same,activity at 10 µM,MDA-MB-435; [20],-98.2%
same,activity at 10 µM,SK-MEL-28; [21],-98.2%
same,activity at 10 µM,A498; [22],-98.9%
same,activity at 10 µM,"ACHN; 10 μM, one-dose",-96.5%
same,activity at 10 µM,"HS 578T; HS 578T, 10 μM, one-dose",-98.2%
"CC[C@]12C=CCN3CC[C@@]4(c5ccc(OC)cc5N(C)[C@H]4[C@@](O)(C(=O)OC)[C@@H]1OC(=O)CCCC[P+](c1ccccc1)(c1ccccc1)c1ccccc1)[C@@H]32 [compound 4, reference compound]",GI50,HOP-62 [2]; HOP-62,2600 nM
same,GI50,NCI-H23; NCI-H23,1220 nM
same,GI50,HT29,404 nM
same,GI50,SW-620; SW-620,1180 nM
same,GI50,SF-295 [3]; SF-295,2750 nM
same,GI50,SNB-75; SNB-75,221 nM
same,GI50,LOX IMVI,1170 nM
same,GI50,SK-MEL-2; SK-MEL-2,279 nM
same,GI50,SK-MEL-5; SK-MEL-5,1710 nM
same,GI50,OVCAR-3; OVCAR-3,398 nM
same,GI50,786-0; 786-0,2900 nM
same,GI50,UO-31 [4]; UO-31,12200 nM
same,GI50,PC-3; PC-3,369 nM
same,GI50,DU-145; DU-145,763 nM
same,GI50,MDA-MB231ATCC,370 nM
same,GI50,T-47D,303 nM
same,GI50,MDA-MB-468; MDA-MB-468,170 nM
same,GI50,"[7]; read-out: GI50 Mean, mean over all 60 human cancer cell lines",3520 nM
same,activity at 10 µM,HL-60(TB); [23],-63.5%
same,activity at 10 µM,"K-562; K562, read-out: Growth percent",21.7%
same,activity at 10 µM,"MOLT-4; MOLT-4, read-out: Growth percent",5.66%
same,activity at 10 µM,SR [8],17.9%
same,activity at 10 µM,"A549/ATCC; A549, read-out: Growth percent",22.1%
same,activity at 10 µM,"HOP-62 [5]; HOP-62, read-out: Growth percent",26.4%
same,activity at 10 µM,NCI-H322M,47%
same,activity at 10 µM,"HCT-116; HCT-116, read-out: Growth percent",8.03%
same,activity at 10 µM,"KM12; KM12, read-out: Growth percent",3.15%
same,activity at 10 µM,"SF-268; SF-268, read-out: Growth percent",26.2%
same,activity at 10 µM,"SF-295 [6]; SF-295, read-out: Growth percent",58.1%
same,activity at 10 µM,"SNB-19; SNB-19, read-out: Growth percent",12.7%
same,activity at 10 µM,"M14; M14, read-out: Growth percent",29.4%
same,activity at 10 µM,"MDA-MB-435; MDA-MB-435, read-out: Growth percent",-19.7%
same,activity at 10 µM,"SK-MEL-28; SK-MEL-28, read-out: Growth percent",12.5%
same,activity at 10 µM,"A498; A498, read-out: Growth percent",52.2%
same,activity at 10 µM,ACHN,93%
same,activity at 10 µM,"UO-31 [9]; UO-31, read-out: Growth percent",81.9%
same,activity at 10 µM,HS 578T; Hs-578T,9.79%
CCC12C=CCN3CCC4(c5ccc(OC)cc5N(C)C4C(O)(C(=O)OC)C1OC(=O)c1ccc(C[P+](c4ccccc4)(c4ccccc4)c4ccccc4)cc1)C32 (stereo not drawn) [compound 12],GI50,"HOP-62 [2]; HOP-62, Non-small Cell Lung Cancer, read-out: GI50",2670 nM
same,GI50,"NCI-H23; NCI-H23, Non-small Cell Lung Cancer, read-out: GI50",2810 nM
same,GI50,"HT29; HT29, Colon Cancer, read-out: GI50",541 nM
same,GI50,"SW-620; SW-620, Colon Cancer, read-out: GI50",1500 nM
same,GI50,"SF-295 [3]; SF-295, CNS Cancer, read-out: GI50",2920 nM
same,GI50,"SNB-75; SNB-75, CNS Cancer, read-out: GI50",1110 nM
same,GI50,"LOX IMVI; Melanoma, read-out: GI50",1820 nM
same,GI50,"SK-MEL-2; SK-MEL-2, SK-MEL-2, Melanoma, read-out: GI50",1270 nM
same,GI50,"SK-MEL-5; SK-MEL-5, Melanoma, read-out: GI50",1210 nM
same,GI50,"OVCAR-3; OVCAR-3, Ovarian Cancer, read-out: GI50",704 nM
same,GI50,"786-0; 786-0, Renal Cancer, read-out: GI50",3580 nM
same,GI50,"UO-31 [4]; UO-31, Renal Cancer, read-out: GI50",20000 nM
same,GI50,"PC-3; PC-3, Prostate Cancer, read-out: GI50",657 nM
same,GI50,"DU-145; DU-145, Prostate Cancer, read-out: GI50",1610 nM
same,GI50,"MDA-MB231ATCC; MDA-MB231ATCC, Breast Cancer, read-out: GI50",686 nM
same,GI50,"T-47D; T-47D, Breast Cancer, read-out: GI50",525 nM
same,GI50,"MDA-MB-468; MDA-MB-468, MDA-MB-468, Breast Cancer, read-out: GI50",186 nM
same,GI50,"[7]; mean over all 60 human cancer cell lines, read-out: GI50 Mean",4320 nM
same,activity at 10 µM,HL-60(TB); [23],-69%
same,activity at 10 µM,K-562; [10],-54.9%
same,activity at 10 µM,MOLT-4; [11],-53%
same,activity at 10 µM,"SR [8]; 10 μM, one-dose",-58.3%
same,activity at 10 µM,A549/ATCC; [12],31%
same,activity at 10 µM,HOP-62 [5]; [13],-32.7%
same,activity at 10 µM,"NCI-H322M; 10 μM, one-dose",19.9%
same,activity at 10 µM,HCT-116; [14],-62.8%
same,activity at 10 µM,KM12; [15],-65.8%
same,activity at 10 µM,SF-268; [16],-26.1%
same,activity at 10 µM,SF-295 [6]; [17],5.9%
same,activity at 10 µM,SNB-19; [18],-72.2%
same,activity at 10 µM,M14; [19],-73.9%
same,activity at 10 µM,MDA-MB-435; [20],-88.8%
same,activity at 10 µM,SK-MEL-28; [21],-92.4%
same,activity at 10 µM,A498; [22],70.2%
same,activity at 10 µM,"ACHN; 10 μM, one-dose",73.7%
same,activity at 10 µM,"UO-31 [9]; UO-31, 10 μM, one-dose, read-out: Growth percent",88.3%
same,activity at 10 µM,"HS 578T; HS 578T, 10 μM, one-dose",-36.6%
